Each structure is given as a SMILES string. pIC50: −log10 of the molar value.

Usually pIC50 stands for −log10 of the IC50, conventionally taken in molar units.

In test [1] the target is Beta5 (purified human constitutive proteasome) (Homo sapiens, UniProt P28074). The experiment in a line: Determination of Beta5 activity (fluorescence intensity assay, Suc-LLVY-AMC). The test is classed as biochemical. As for the experimental part: Determination of Beta5 Activity
Measurement of Beta5 inhibition is performed in 384 well format based on fluorescence intensity assay.
(§1) Purified human constitutive proteasome (1.25 nM) and serial diluted compounds in DMSO (range of concentrations from 30 μM to 15 pM) or controls are incubated for 20 minutes or 120 minutes (long incubation) at 25° C. in assay buffer containing 50 mM Tris pH 7.4, 0.03% SDS, 1 mM EDTA and 1% DMSO. The reaction is initiated by the addition of the fluorogenic peptide substrate, Suc-LLVY-AMC (Bachem I-1395), at a concentration of 40 μM. After 60 minutes of incubation at 37° C., fluorescence intensity is measured at λex=350 nm and λem=450 nm with a fluorescence reader (Perkin Elmer Envision reader or equivalent).
(§2) Unless indicated otherwise the results are obtained after incubation for 20 minutes.

The target of test [2] is LMP7 (purified human immunoproteasome) (Homo sapiens, UniProt P28062). The experiment in a line: Determination of LMP7 activity (fluorescence intensity assay, Suc-LLVY-AMC). The test is classed as biochemical. The protocol:
Determination of LMP7 Activity
Measurement of LMP7 inhibition is performed in 384 well format based on fluorescence intensity assay.
as §1, with “immunoproteasome (0.25” for “constitutive proteasome (1.25”
as §2

As to `CCC(=O)N(CC(=O)N[C@@H](Cc1ccsc1)B(O)O)c1ccccc1F` [Compound No. 39, [(1R)-1-[[2-(2-fluoro-N-propanoyl-anilino)acetyl]amino]-2-(3-thienyl)ethyl]boronic acid], in test [1] (incubation for 20 minutes), the negative logarithm of the IC50 (pIC50) was below 5.30 and the “Selectivity LMP7 vs Beta5” value is reported as “+++ (+++: 30 ≤ Selectivity < 50)”. In test [2] (incubation for 20 minutes), the pIC50 is 5.30 to 6.30.

Regarding `CCN(CCC(=O)N[C@@H](Cc1ccc(F)cc1)B(O)O)C(=O)c1ccc(Cl)cc1` [Compound No. 26, [(1R)-1-[3-[(4-chlorobenzoyl)-ethyl-amino]propanoylamino]-2-(4-fluorophenyl)ethyl]boronic acid], in test [1] (incubation for 20 minutes), the pIC50 was 6.30 to 7.30 and the “Selectivity LMP7 vs Beta5” value is “++++ (++++: 50 ≤ Selectivity < 70)”. For the same compound, the negative logarithm of the IC50 (pIC50) in test [2] (incubation for 20 minutes) is above 7.30.

Take `CCN(CCC(=O)N[C@@H](Cc1ccc(C)cc1C)B(O)O)C(=O)c1ccc(C)cc1` [Compound No. 19, [(1R)-2-(2,4-dimethylphenyl)-1-[3-[ethyl-(4-methylbenzoyl)amino]-propanoylamino]-ethyl]boronic acid]: the values for the pIC50 in test [1] (incubation for 20 minutes) and in test [2] (incubation for 20 minutes) were 5.30 to 6.30 and above 7.30, respectively. Besides, the “Selectivity LMP7 vs Beta5” value in test [1] (incubation for 20 minutes) is “+++++ (+++++: Selectivity ≥ 70)”.

As for `CCN(CC(=O)N[C@@H](Cc1ccc(C)cc1C)B(O)O)C(=O)CSC` [Compound No. 36, [(1R)-2-(2,4-dimethylphenyl)-1-[[2-[ethyl-(2-methylsulfanylacetyl)-amino]acetyl]amino]ethyl]boronic acid], the negative-log IC50 (pIC50) in test [1] (incubation for 20 minutes) was below 5.30; in test [2] (incubation for 20 minutes), 6.30 to 7.30. Also, the “Selectivity LMP7 vs Beta5” value in test [1] (incubation for 20 minutes) was “++++ (++++: 50 ≤ Selectivity < 70)”.

Turning to `CCN(CCC(=O)N[C@@H](Cc1ccc(F)cc1)B(O)O)C(=O)c1ccc(C(F)(F)F)cc1` [Compound No. 27, [(1R)-1-[3-[ethyl-[4-(trifluoromethyl)benzoyl]amino]propanoylamino]-2-(4-fluorophenyl)ethyl]boronic acid], the figures for the pIC50 in test [1] (incubation for 20 minutes) and in test [2] (incubation for 20 minutes) were 6.30 to 7.30 and above 7.30, respectively. Also, the “Selectivity LMP7 vs Beta5” value in test [1] (incubation for 20 minutes) is recorded as “+++ (+++: 30 ≤ Selectivity < 50)”.

Regarding `Cc1ccc(S(=O)(=O)N(CC(=O)N[C@@H](C[C@@H]2COc3ccccc32)B(O)O)C(C)C)cc1` [Compound No. 41, [(1R)-2-[(3S)-2,3-dihydrobenzofuran-3-yl]-1-[[2-[isopropyl(p-tolylsulfonyl)amino]acetyl]amino]ethyl]boronic acid], in test [1] (long incubation (120 min)), the pIC50 is 5.30 to 6.30 and the “Selectivity LMP7 vs Beta5” value is recorded as “+++++ (+++++: Selectivity ≥ 70)”. For the same compound, in test [2] (long incubation (120 min)), the pIC50 was above 7.30.

Regarding `CCN(CCC(=O)N[C@@H](C[C@@H]1COc2ccccc21)B(O)O)C(=O)c1ccc(Cl)cc1` [Compound No. 42, [(1R)-1-[3-[(4-chlorobenzoyl)-ethyl-amino]propanoylamino]-2-[(3S)-2,3-dihydrobenzofuran-3-yl]ethyl]boronic acid], the pIC50 in test [1] (long incubation (120 min)) is 6.30 to 7.30; in test [2] (long incubation (120 min)) it was above 7.30. In addition, in test [1] (long incubation (120 min)), the “Selectivity LMP7 vs Beta5” value is on record as “+++++ (+++++: Selectivity ≥ 70)”.

As to `O=C(CCS(=O)(=O)c1ccccc1)N[C@@H](Cc1coc2ccccc12)B(O)O` [Compound No. 4, [(1R)-1-[3-(benzenesulfonyl)propanoylamino]-2-(benzofuran-3-yl)ethyl]boronic acid], in test [1] (incubation for 20 minutes), the pIC50 was above 7.30 and the “Selectivity LMP7 vs Beta5” value is listed as “+++ (+++: 30 ≤ Selectivity < 50)”. This compound also showed a pIC50 in test [2] (incubation for 20 minutes) above 7.30.

Turning to `CCc1cccc(C[C@H](NC(=O)CCCS(C)(=O)=O)B(O)O)c1` [Compound No. 21, [(1R)-2-(3-ethylphenyl)-1-(4-methylsulfonylbutanoylamino)ethyl]-boronic acid], the pIC50 in test [1] (incubation for 20 minutes) is below 5.30; in test [2] (incubation for 20 minutes), 6.30 to 7.30. Further, the “Selectivity LMP7 vs Beta5” value in test [1] (incubation for 20 minutes) is listed as “+++ (+++: 30 ≤ Selectivity < 50)”.

On to `Cc1ccc(S(=O)(=O)N(C)CC(=O)N[C@@H](Cc2ccc(C)cc2C)B(O)O)cc1` [Compound No. 32, [(1R)-2-(2,4-dimethylphenyl)-1-[[2-[methyl(p-tolylsulfonyl)amino]-acetyl]amino]ethyl]boronic acid], for which, in test [1] (incubation for 20 minutes), the pIC50 is 6.30 to 7.30 and the “Selectivity LMP7 vs Beta5” value was “+++++ (+++++: Selectivity ≥ 70)”. This compound had a pIC50 in test [2] (incubation for 20 minutes) above 7.30.

(Values after US10253049B2, “Boronic acid derivatives” (MERCK PATENT GMBH, priority 2014, dated 2019).)
